Assays:
PrP 5′ UTR = conditions: SH-SY5Y cells
[1] = biological target: RNA-7 (A bulge mutated to U or G bulge); test: Competitive binding assay (2-AP), RNA-7
Protocol: (§1) EC50 was calculated from Eq. (1).

ferritin 5′ UTR = test: Luciferase reporter assay, ferritin 5′ UTR, SH-SY5Y cells; assay type: cell-based, human; conditions: 1 μM
SH-SY5Y cells [2] = test: LDH release cytotoxicity assay; assay type: cell-based, human; conditions: 0.25, 0.5 and 1 μM, 48 h
Protocol: (§2) To assess if Synucleozid has a cytotoxic effect, SH-SY5Y cells were treated with 0.25, 0.5 and 1 μM for 48 h, and cell viability and cytotoxicity were measured using CellTiter 96 Aqueous One Solution Cell Proliferation Assay (MTS) and LDH release assay, respectively, according to the manufacturers' instructions.

SNCA 5′ UTR = test: Luciferase reporter assay, SNCA 5′ UTR, SH-SY5Y cells; assay type: cell-based, human
[3] = test system: RNA-12 (fully base paired RNA); test: Competitive binding assay (2-AP), RNA-12
Protocol: (§3) I and I0 are the observed fluorescence intensity in the presence and absence of 2-AP RNA. Δε is the difference between the fluorescence intensity in the absence and presence of infinite 2-AP RNA. […] EC50 was calculated from Eq. (1). […] The change of fluorescence intensity was fit to Eq. (2):
(§4) θ is the percentage of 2-AP RNA bound. [RNA] is the concentration of 2-AP RNA. EC50 is the EC50 of Synucleozid determined in the assay above. [Synucleozid] is the concentration of Synucleozid. Cc is the concentration of competitive RNA. Kd is competitive dissociation constant and A is a constant.

[4] = biological target: T1, IRP-2:SNCA IRE RNA complex (Homo sapiens, UniProt P48200); test: In vitro displacement of IRPs by gel mobility shift assay, IRP-2; assay type: binding; conditions: 0.2, 1, 5 μM; pre-incubation 1-60 min
T1 construct: purchased Abnova
T1 sequence (P48200 whole entry, species assumed, one chain of several): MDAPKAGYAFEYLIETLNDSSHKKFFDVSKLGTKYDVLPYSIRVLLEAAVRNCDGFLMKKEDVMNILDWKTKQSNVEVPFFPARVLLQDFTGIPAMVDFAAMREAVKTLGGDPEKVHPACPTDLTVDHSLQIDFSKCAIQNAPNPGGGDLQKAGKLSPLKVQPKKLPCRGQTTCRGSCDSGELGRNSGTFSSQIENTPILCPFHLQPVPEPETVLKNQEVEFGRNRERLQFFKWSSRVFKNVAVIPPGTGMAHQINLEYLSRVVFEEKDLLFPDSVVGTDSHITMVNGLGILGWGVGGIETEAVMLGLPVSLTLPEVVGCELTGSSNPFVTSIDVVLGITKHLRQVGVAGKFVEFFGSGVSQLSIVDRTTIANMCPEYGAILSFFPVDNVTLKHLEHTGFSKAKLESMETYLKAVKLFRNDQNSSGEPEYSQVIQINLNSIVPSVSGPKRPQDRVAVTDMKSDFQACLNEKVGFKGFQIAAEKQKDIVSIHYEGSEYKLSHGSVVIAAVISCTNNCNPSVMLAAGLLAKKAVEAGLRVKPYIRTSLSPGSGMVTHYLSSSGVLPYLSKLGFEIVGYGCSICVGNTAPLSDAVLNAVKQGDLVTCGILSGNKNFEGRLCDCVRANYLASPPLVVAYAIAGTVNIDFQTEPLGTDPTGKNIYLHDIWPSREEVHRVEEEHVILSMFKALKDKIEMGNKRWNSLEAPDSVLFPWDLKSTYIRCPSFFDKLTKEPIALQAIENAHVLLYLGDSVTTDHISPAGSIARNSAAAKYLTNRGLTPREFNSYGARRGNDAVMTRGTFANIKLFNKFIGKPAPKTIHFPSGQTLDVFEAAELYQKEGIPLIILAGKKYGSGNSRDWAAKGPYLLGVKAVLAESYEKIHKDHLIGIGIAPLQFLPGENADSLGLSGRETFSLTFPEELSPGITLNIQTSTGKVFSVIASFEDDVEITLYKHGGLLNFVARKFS
Protocol: In vitro displacement of IRPs by gel mobility shift assays. SNCA IRE hairpin RNA was 5′-end labeled with [γ-^32P]ATP as previously described^5. Approximately, 2 pmoles of ^32P labeled RNA per 20 μL reaction was folded in 1× Assay Buffer by heating at 65° C. for 5 min and slowly cooling to room temperature. As indicated, vehicle, Synucleozid (0.2, 1, 5 μM) or unlabeled IRE RNA (1 μM, folded as described above and used as a positive control) was added to the samples, and the samples were incubated at room temperature for varying amounts of time (1-60 min as indicated). Then, 0.5 μg IRP-1 or IRP-2 (Abnova) was added, and the samples were incubated at room temperature for an additional 30 min. An equal volume of 2× Native Gel Loading Buffer (2×TBE, 50% Glycerol, 0.025% (w/v) Bromophenol blue and Xylene cyanol FF) was added to each sample. Note, Native Gel Loading Buffer added to Synucleozid-treated samples was supplemented with the same concentration of Synucleozid as in the sample to maintain a constant concentration. IRP:IRE complexes and free IRE were separated on a native 15% polyacrylamide prepared 1×TBE supplemented with the same concentration of Synucleozid as in compound-treated samples, and imaged using a Bio-Rad PMI phosphorimager. Images were quantified with BioRad's Quantity One software.

tRNA = test: Competitive binding assay (2-AP), tRNA
Protocol: as §3, §4

[5] = biological target: RNA-6 (A bulge mutated to U or G bulge); test: Competitive binding assay (2-AP), RNA-6
Protocol: as §1

[6] = biological target: unlabeled SNCA IRE RNA (RNA-0); test: Competitive binding assay (2-AP), RNA-0; conditions: read-out: competitive Kd; RNA-0, native SNCA IRE
Protocol: as §3, §4

SNCA mRNA = test: RT-qPCR of SNCA mRNA levels in SH-SY5Y cells; assay type: cell-based, human
[7] = test system: RNA-8 to 11 (mutated closing base pairs); test: Competitive binding assay (2-AP), RNA-8 to 11
Protocol: as §1

SH-SY5Y cells [8] = test: Cell viability (MTS) assay; assay type: cell-based, human; conditions: 0.25, 0.5 and 1 μM, 48 h
Protocol: To assess if Synucleozid has a cytotoxic effect, SH-SY5Y cells were treated with 0.25 μM to 1 μM for 48 h, and cell viability and cytotoxicity were measured using CellTiter 96 Aqueous One Solution Cell Proliferation Assay (MTS) according to the manufacturers' instructions.
as §2

[9] = test system: A-bulge-mutated RNA (fully paired RNA); test: Thermal melting experiment, fully paired RNA; assay type: binding
From the text: Thermal melting experiment.

What does the source list for `N=C(N)c1ccc(Nc2ccc(-c3cc4ccc(C(=N)N)cc4[nH]3)cc2)cc1` [Synucleozid A]?
effect on translation of luciferase fused to PrP 5′ UTR (PrP 5′ UTR): no effect; Kd [1]: ~20 µM; reduction of avidity compared to the native IRE [1]: 10 fold; inhibition of translation, luciferase fused to ferritin 5′ UTR (ferritin 5′ UTR): ~10%; LDH release (cytotoxicity) (SH-SY5Y cells [2]): no toxicity; LDH release (cytotoxicity) (SH-SY5Y cells [2]; listed as Synucleozid): no effect; inhibition of translation, luciferase fused to SNCA 5′ UTR (SNCA 5′ UTR; 250 nM): ~10%; inhibition of translation, luciferase fused to SNCA 5′ UTR (SNCA 5′ UTR; 1 μM): ~40%; competitor RNA concentration needed for recovery of 2-AP emission [3]: > 100 µM; effect on binding of IRP-2 to SNCA IRE RNA [4]: Neither Synucleozid concentration (0.2, 1, 5 μM) nor pre-incubation time (1, 5, 15, 60 min) has any significant effect; competitor RNA concentration needed for recovery of 2-AP emission (tRNA): > 100 µM; Kd [5]: ~20 µM; reduction of avidity compared to the native IRE [5]: 10 fold; Kd [6]: 1.5 ± 0.3 µM; effect on steady-state levels of SNCA mRNA (SNCA mRNA): no effect; effect of closing base pair mutation on binding affinity [7]: reduced binding affinity; cell viability (MTS) (SH-SY5Y cells [8]): no toxicity; cell viability (MTS) (SH-SY5Y cells [8]; listed as Synucleozid): no effect; effect on thermal stability of A-bulge-mutated RNA [9]: no significant effect

From patent US20230054976A1, “METHODS FOR INHIBITION OF ALPHA-SYNUCLEIN mRNA USING SMALL MOLECULES” (The Scripps Research Institute, priority 2019, published 2023)
